28 compounds from ChEMBL document CHEMBL1128050, “The discovery of a novel and potent benzodiazepine receptor pharmacophore” (Bioorg Med Chem Lett, 1995) can be followed below.

The target in assay [1] is GABA-A receptor; anion channel. Nature of the assay: Binding affinity to the benzodiazepine receptor assayed using 0.5 nM [3H]flunitrazapam as radioligand in guinea pig cerebellum. Format: tissue-based, Cavia porcellus.
The target in assay [2] is GABA-A receptor; anion channel (Homo sapiens) (UniProt P14867+P47870+P18507+P28472+P48169+Q99928+Q9UN88+P34903+O00591+O14764+Q8N1C3+P18505+P78334+P47869+P31644+Q16445). Nature of the assay: Inhibition of [3H]flunitrazapam binding to GABA-A central benzodiazepine receptor of guinea pig cerebellum at 10 uM. The note with it: Cavia porcellus, target entry is the homologue from another species. Format: tissue-based.

The target in assay [3] is GABA-A receptor; anion channel. As to the kind of experiment: Displacement of [3H]flunitrazapam from GABA-A central benzodiazepine receptor of guinea pig cerebellum. The assay is classed as tissue-based, Cavia porcellus.

Bounds are passed on as bounds.

Consider `CN1CCC[C@@H]1Cc1c[nH]c2ccc(-n3cnc4ccccc43)cc12`, for which the IC50 – broadly, the concentration that gives 50% inhibition – in assay [1] stood at 0.016 µM.

As for `N#Cc1ccc2c(c1)ncn2-c1ccc2[nH]cc(C=O)c2c1`, in assay [1], the IC50 was 0.019 µM.

`CN1CCC(c2c[nH]c3ccc(-n4cnc5cc(C#N)ccc54)cc23)C1` (centres undefined) came in with an IC50 in assay [1] of 0.0022 µM. On the same count and under the same terms, in the case of `N#Cc1ccc2c(c1)ncn2-c1ccc2[nH]cc(C3CCNCC3)c2c1` it was 0.00024 µM. With `CN1CCC(c2c[nH]c3ccc(-n4ccc5cc(C#N)ccc54)cc23)C1` (centres undefined), in assay [2], the inhibition – broadly, the drop in the measured response relative to a control, in per cent – was found to be 34%.

Compound `CN1CCC[C@@H]1Cc1c[nH]c2ccc(Nc3ncccc3[N+](=O)[O-])cc12` registered an IC50 in assay [1] of 9.6 µM. This lies in the single-digit micromolar range.

In assay [1], `Cc1ccc2c(c1)ncn2-c1ccc2[nH]cc(C[C@H]3CCCN3C)c2c1` came in with an IC50 of 0.00016 µM. For `CN1CCC[C@@H]1Cc1c[nH]c2ccc(-n3ccc4cc(C#N)ccc43)cc12`, the IC50 in assay [1] was above 1 µM. In addition, the inhibition in assay [2] was 37%. With `Cc1ccnc2c1ncn2-c1ccc2[nH]cc(C[C@H]3CCCN3C)c2c1`, the IC50 in assay [1] worked out at 0.012 µM. Same read-out and setting: in the case of `c1cnc2c(c1)ncn2-c1ccc2[nH]cc(C[C@H]3CCCN3)c2c1` it was 0.11 µM; in that of `N#Cc1ccc2c(c1)ncn2-c1ccc2[nH]cc(C3=CCNCC3)c2c1`, 0.00046 µM. In turn, `O=Cc1c[nH]c2ccc(-n3cnc4cccnc43)cc12` showed an IC50 in assay [1] of 0.209 µM. In turn, `Cc1ccc2c(c1)ncn2-c1ccc2[nH]cc(C3CCNCC3)c2c1` registered a half-maximal inhibitory concentration (IC50) in assay [1] of 0.00049 µM.

Consider `Cc1ccc2c(c1)ncn2-c1ccc2[nH]ccc2c1`, for which the IC50 in assay [1] was found to be 0.00079 µM. Against the preceding compound, the IC50 is about 1.6-fold higher. The same measure, in the same setting: in the case of `CN1CCC[C@@H]1Cc1c[nH]c2ccc(-n3cnc4cc(CN)ccc43)cc12` it was 0.013 µM; in that of `CN1CCC[C@H]1Cc1c[nH]c2ccc(-n3cnc4cc(C#N)ccc43)cc12`, 0.0018 µM. The same measure, in the same setting: to `COCCN1CCC[C@@H]1Cc1c[nH]c2ccc(-n3cnc4cc(C#N)ccc43)cc12` belongs 0.024 µM. Still for that read-out and setting: to `COCCN1CCC[C@@H]1Cc1c[nH]c2ccc(-n3cnc4cc(CN)ccc43)cc12` belongs 0.055 µM. Turning to `CN1CCC[C@@H]1Cc1c[nH]c2ccc(-n3cnc4cc(C#N)ccc43)cc12`, the IC50 in assay [1] was determined as 0.0028 µM. Turning to `N#Cc1ccc2c(c1)ncn2-c1ccc2[nH]ccc2c1`, in assay [1], the IC50 was 0.018 µM. Turning to `COCCN1CCC[C@@H]1Cc1c[nH]c2ccc(-n3cnc4cc(NC(=O)Nc5ccccc5)ccc43)cc12`, the IC50 in assay [1] is 0.017 µM. In assay [1], `CN1CCC[C@@H]1Cc1c[nH]c2ccc(-n3cnc4cc(Cl)ccc43)cc12` registered an IC50 of 0.0011 µM. The compound `CN1CCC[C@@H]1Cc1c[nH]c2ccc(-n3cnc4cc(C#N)cnc43)cc12` came in with an IC50 in assay [1] of 0.0098 µM. As for `CN1CCC[C@@H]1Cc1c[nH]c2ccc(-n3cnc4cc(NC(Cc5c[nH]c6ccccc56)C(=O)NC(=O)OCc5ccccc5)ccc43)cc12` (some centres undefined), the IC50 in assay [1] stood at 0.033 µM. In assay [3], `N#Cc1ccc2c(c1)ncn2-c1ccc2[nH]cc(C[C@H]3CCCN3CC3CC3)c2c1` showed an IC50 of 0.027 µM. In assay [1], `Cc1ccc2c(c1)ncn2-c1ccc2[nH]cc(C3=CCN(C(=O)OC(C)(C)C)CC3)c2c1` came in with an IC50 of 0.031 µM. In the case of `COCCN1CCC(c2c[nH]c3ccc(-n4cnc5cc(C#N)ccc54)cc23)CC1`, the IC50 in assay [1] came to 0.0006 µM. Compound `CN1CCC[C@@H]1Cc1c[nH]c2ccc(-n3cnc4cccnc43)cc12` came in with an IC50 in assay [1] of 0.027 µM.
